Where two headings read alike, the source gives them in different places.
What was measured:
MnSOD = experiment: mRNA expression (Real-Time PCR) of MnSOD; format: cell-based, human; conditions: HCT116, TSC 1 µM, 12 or 24 h
Method: (§1) The HCT116 cells were seeded in 3 cm Petri dishes (Nunc) at a density of 0.5·10^6 cells/well and incubated overnight. Next, the medium was removed and solutions of TSC (1 μM) and DOX (5 μM) were added. After 12 or 24 h, total RNA was isolated from the cells using TRIzol Reagent (Ambion) according to the manufacturer’s instructions. cDNA synthesis was performed with 5 μg of total RNA using a GoScript™ Reverse Transcriptase kit (Promega) and Oligo(dT)23 Primers (Sigma). The Real-Time PCR was performed with a CTX96 Touch™ Real-Time PCR Detection System (Biorad) in a 20 μL reaction volume. The reaction consisted of PowerUp™ SYBR® Green Master Mix (Applied Biosystems), a primer pair mix (0.5 μM each) and 1 μL of cDNA. All primer pair sequences were purchased from Sigma-Aldrich and are listed in Supplementary Table 2. The experiment was performed under the following conditions: initial denaturation at 95° C for 120 sec; followed by 40 denaturation cycles at 95° C, 15 sec; annealing (primer-specific temperature for 30 sec) and extension at 72° C for 60 sec. Data was analyzed based on a comparison of the expression of the target genes to a reference gene – β-actin, using the 2^–ΔΔCT method. The experiments were performed at least three times.

HCT116 [1] = tested on: HCT116; design: method as in PMID 25329549; conditions: 96 h incubation, MTS; cited from earlier work
MCF-7 = experiment: MTS antiproliferative assay, MCF-7 (with or without added metal ions); format: cell-based, human
Method: (§2) The cells were seeded in 96-well plates (Nunc) at a density of 3,500 cells/well (HCT116 and MCF-7) and 3,000 cells/well (NHDF) and incubated at 37° C for 24 h. The assay was performed following a 96 h incubation with varying concentrations of the compounds that were being tested. Then, 20 µL of CellTiter 96® AQueous One Solution-MTS (Promega) was added to each well (with 100 µL DMEM without phenol red) and incubated for 1 h at 37° C. The optical densities of the samples were analyzed at 490 nm using a multi-plate reader (Synergy 4, Bio Tek). Results were expressed as a percentage of the control and calculated as the inhibitory concentration (IC50) values (using GraphPad Prism 5). The IC50 parameter was defined as the compound concentration that was necessary to reduce the proliferation of cells to 50% of the untreated control. Each individual compound was tested in triplicate in a single experiment with each experiment being repeated three or four times.
(§3) The HCT116 and MCF-7 cells were seeded in 96-well plates (Nunc) at a density of 3,500 cells/well and incubated at 37° C for 24 h. The MTS assay was performed following a 96 h incubation with varying concentrations of the tested compounds. Additionally, a 20 µM solution of CuSO4, FeSO4 or FeCl3 was added into wells with the tested compounds. The results were expressed as a percentage of the control and calculated as the inhibitory concentration (IC50) values using GraphPad Prism 5. Each individual compound was tested in triplicate in a single experiment with each experiment being repeated three times.

NHDF = tested on: NHDF; design: method as in PMID 25329549; conditions: 96 h incubation, MTS; cited from earlier work
calf-thymus DNA (CT-DNA) = experiment: Intercalation, absorption spectra with CT-DNA; format: binding; conditions: for % hypochromism / Changes in absorbance / Δε: bound to CT-DNA; for blue/red shift: wavelengths of maximum absorption, compound alone vs DNA-bound
Method: For the DNA binding studies, Calf-thymus DNA (CT-DNA) was purchased from Sigma Aldrich. The lyophilized CT-DNA was dissolved in 10 mM Tris-HCl, pH 7.9, mixed gently and left overnight at 4° C. The purity of the CT-DNA solution was determined by measuring the ratio of UV absorbance at 260 and 280 nm. […] Then, the concentration of CT-DNA was determined from the absorbance at 260 nm using an extinction coefficient of 6600 M^–1cm^–1. The tested TSC and DOX were dissolved in DMSO to a concentration of 8.35 mM, which was then used as the stock solution for preparing the various concentrations (25, 12.5, 6 and 3 µM) in 1 mL in 10 mM of Tris-HCl (pH 7.9). Afterwards, 18 µM CT-DNA was added to the prepared solutions, which were incubated for 1.5 h at 37° C with occasional vortexing. The absorption spectra were measured using a Hitachi U-2900 spectrophotometer in range of 200–500 nm. All absorption spectra were imported and compared in OriginPro 8.0.

HCT116 [2] = experiment: MTS antiproliferative assay, HCT116 (with or without added metal ions); format: cell-based, human; conditions: for IC50: 96 h
Method: as §2, §3

HCT116 cells = experiment: Cell cycle assay (Muse Cell-Cycle Kit); format: cell-based, human; conditions: HCT116, TSC 1 µM, 48 h
Method: The HCT116 cells were seeded in 3 cm Petri dishes (Nunc) at a density of 0.25·10^6 cells/well and incubated at 37° C for 24 h. […] After a 48 h treatment, assays were performed using a Muse Cell-Cycle Kit (Millipore) according to the manufacturer’s instructions. Briefly, cells were collected, washed with cold PBS and centrifuged at 300 g. Then, the cells were fixed in ice cold 70% ethanol and stored at –20° C overnight. Afterwards, the cells were centrifuged and resuspended in 200 μL of Muse™ Cell Cycle Reagent and incubated for 30 min at room temperature in the dark. After staining, the cells were processed for cell cycle analysis using a Muse Cell Analyzer (Millipore). The experiments were performed at least three times.

CAT = experiment: mRNA expression (Real-Time PCR) of CAT; format: cell-based, human; conditions: HCT116, TSC 1 µM, after the first 12 h
Method: as §1

cdc2 = experiment: Western blot of cdc2; format: cell-based, human; conditions: HCT116, 1 µM
Method: (§4) The HCT116 cells were seeded in 3 cm Petri dishes (Nunc) at a density of 0.5·10^6 cells/well and incubated overnight. The next day, solutions of TSC (1 μM) and DOX (5 μM) were added and the cells incubated for 24 or 48 h. Cells were harvested by trypsinization and washed with cold PBS. Next, the cells were centrifuged and suspended in an RIPA buffer (Thermo Scientific) containing Halt Protease Inhibitor Cocktail (Thermo Scientific), Halt Phosphatase Inhibitor Cocktail (Thermo Scientific) along with 0.5 M EDTA and lysed for 20 min on ice. Then, the lysates were sonicated, centrifuged at 10,000 rpm for 10 min at 4° C and the supernatants were collected for further analysis. The protein concentration was determined using a Micro BCA™ Protein Assay Kit (Thermo Scientific) according to the manufacturer’s instructions. Equal amounts of the proteins (20 μg) were electrophoresed on SDS-Page gels and transferred onto a nitrocellulose membranes. The membranes were blocked in 5% non-fat milk prepared in PBS containing 0.1% Tween-20 (TPBS) for 1 h. After blocking, the membranes were incubated with specific primary antibodies: cdc2 (#POH1, Cell Signaling), p21^Waf1/Cip1 (#12D1, Cell Signaling), p53 (#1C12, Cell Signaling) and β-Actin (#8H10D10, Cell Signaling) overnight at 4° C, then washed and incubated with horseradish peroxidase (HRP)-conjugated secondary antibodies for 1h at room temperature. All of antibodies were diluted 1:1000 in 5% milk in TPBS. Finally, the membranes were washed and incubated with a SuperSignal™ West Pico Chemiluminescent Substrate (Thermo Scientific). The chemiluminescence signals were captured using a ChemiDoc™ XRS+ System (BioRad). The experiments were performed at least three times. Densitometric analysis was performed using ImageJ 1.41 software (Wayne Rasband, National Institutes of Health, USA).

Ndrg1 = experiment: mRNA expression (Real-Time PCR) of Ndrg1; format: cell-based, human; conditions: HCT116, TSC 1 µM, 24 h
Method: as §1

p21 = experiment: Western blot of p21; format: cell-based, human; conditions: HCT116, 1 µM
Method: as §4

[3] = 96 h, 20 µM CuSO4 added, read-out: Activity - IC50 MCF-7+ Cu^2+
[4] = 96 h, 20 µM FeCl3 added, read-out: Activity - IC50 MCF-7+ Fe^3+
[5] = 96 h incubation, MTS, read-out: Activity - IC50 MCF-7
[6] = 20 µM CuSO4 added, read-out: Activity - IC50 HCT116+ Cu^2+
[7] = 20 µM FeCl3 added, read-out: Activity - IC50 HCT116+ Fe^3+

| SMILES | mRNA expression of MnSOD (MnSOD) | IC50 (HCT116 [1]) [nM] | IC50 (MCF-7; [3]) [nM] | IC50 (MCF-7; [4]) [nM] | IC50 (MCF-7; [5]) [nM] | IC50 (NHDF) [nM] | % hypochromism (calf-thymus DNA (CT-DNA)) [%] | Changes in absorbance (calf-thymus DNA (CT-DNA)) | Δε (calf-thymus DNA (CT-DNA)) [M⁻¹ cm⁻¹] | blue/red shift (calf-thymus DNA (CT-DNA)) [nm] | IC50 (HCT116 [2]; [6]) [nM] | IC50 (HCT116 [2]; [7]) [nM] | cells in S phase (HCT116 cells) | expression of cdc2 protein (densitometric analysis) (cdc2) | also measured |
| --- | --- | --- | --- | --- | --- | --- | --- | --- | --- | --- | --- | --- | --- | --- | --- |
| S=C(NN=Cc1ccc2ccccc2n1)N1CCN(c2cnccn2)CC1 [Compound 1a] | after the initial decline (for 12 h) there is a small increase | 87.7 ± 43.9 | 44.9 ± 3.77 | 273 ± 35.6 | 219 ± 15.1 | 9440 | 22.0 | hypochromism | 3175.6 | 1 | 59.6 ± 6.45 | 96.9 ± 16.9 | – | – | – |
| Oc1cccc2ccc(C=NNC(=S)N3CCOCC3)nc12 [Compound 2a] | slight increase | 3.84 ± 1.46 | 2.39 ± 0.42 | 8.83 ± 1.29 | 10.9 ± 2.85 | 10600 | 15.7 | hypochromism | 1935.6 | 10 | 1.39 ± 0.44 | 7.57 ± 1.19 | 33–35% | – | – |
| Oc1cccc2ccc(C=NNC(=S)N3CCN(c4cnccn4)CC3)nc12 [Compound 2b] | – | 50.5 ± 28.1 | 5.49 ± 1.19 | 35.8 ± 5.82 | 32.2 ± 6.85 | 12100 | 9.4 | hypochromism | 1888.9 | 5 | 4.17 ± 1.12 | 78.2 ± 14 | 33–35% | increased the expression | mRNA expression of CAT (CAT): higher; mRNA expression of Ndrg1 (Ndrg1): strongest; improvement in cytotoxicity after interacting with Cu^2+ (HCT116 [2]; HCT116 cells, 20 µM CuSO4): more than a ten-fold increase |
| CN(C)C(=S)NN=C(c1ccccn1)c1ccccn1 [Dp44mT, di-2-pyridylketone 4,4-dimethyl-3-thiosemicarbazone, reference compound] | – | 1.4 ± 0.13 | – | – | – | 15400 | 8.2 | hypochromism | 1673.3 | 2 | – | – | 41% | lowest values | expression of p21 protein (densitometric analysis) (p21): marked up-regulation; IC50 (MCF-7; Homo sapiens, MCF7, 96 h, 20 µM CuSO4 added, read-out: Activity - IC50 MCF-7+ Cu^2+): 0.13 ± 0.04 nM; IC50 (MCF-7; Homo sapiens, MCF7, 96 h, 20 µM FeCl3 added, read-out: Activity - IC50 MCF-7+ Fe^3+): 0.96 ± 0.32 nM; IC50 (MCF-7; Homo sapiens, MCF7, 96 h incubation, MTS, read-out: Activity - IC50 MCF-7): 0.38 ± 0.15 nM; Selectivity index, calculated for MCF-7 (MCF-7; versus NHDF): 40473.7; ability to intercalate DNA (calf-thymus DNA (CT-DNA); CT-DNA, absorption spectra): very weak; IC50 (HCT116 [2]; Homo sapiens, HCT-116, 20 µM CuSO4 added, read-out: Activity - IC50 HCT116+ Cu^2+): 0.31 ± 0.06 nM; IC50 (HCT116 [2]; Homo sapiens, HCT-116, 20 µM FeCl3 added, read-out: Activity - IC50 HCT116+ Fe^3+): 1.77 ± 0.36 nM; Selectivity index, calculated for HCT116 (HCT116 [2]; versus NHDF): 10985.7 |

— publication PMC5915149, “The role of oxidative stress in activity of anticancer thiosemicarbazones” (Oncotarget, 2018)
